Reference: patent publication US8088605B2, “Exopolysaccharides delivery system for active molecules” (Technologies Biolactics Inc., priority 2002, dated 2012)
“Also recorded” adds a separate entry of the source.

Legend:
[1] = Rhodamine 123 pharmacokinetic in rats, oral; assay type: in vivo, Wistar female rats; settings: 5 mg/kg oral
Protocol: The pharmacokinetic of Rhodamine 123 (R123) was performed on unfasten Wistar female rats of 200 g and 8 weeks of age. Rhodamine concentration is 5 mg/kg. […] Rhodamine is added to the latter solutions and vortexed. Formulations are fed to the animals with a canula and 200 μl blood samples are collected through the jugular vein every hour for 4 hours (plus 1 sample at 0.5 h). Plasma are collected immediately after centrifugation (10 min @ 13000 g). Plasma are frozen on dry ice until further analysis: 50 μl of plasma are diluted in 550 μl of saline 0.7% (w/v) and analyzed with a Varian Eclipse™ Spectrofluorometer (Excitation: 505 nm Emission: 540 nm). Concentrations were determined on a Rhodamine 123 standard curve (R123 diluted in saline 0.7% and 50 μl of normal serum as in the sample analysis).

B16 cells [2] = test: Growth in tissue culture of paclitaxel-treated B16 cells; assay type: cell-based; settings: replated after treatment, 2 weeks in culture
Protocol: (§1) Cells (50000 cells per 50 μl injections) for a concentration of 10^6 cells per ml. The remaining of the test was performed as follows: • Cells from 1XT75 (80% confluence) are trypsinized with 2 ml trypsin, diluted in 12 ml media, spun down, rinsed once in 5 ml PBS, and resuspended in 2 ml PBS. Cells are then counted and concentration adjusted to 10^6 cells per ml. • P1 treatment: Add 200 μl P1 stock and […] of cell suspension (10^6 cells) and incubate at room temperature 3 hrs. Final Paclitaxel=1 mM, DMSO=1%. • P2 treatment: Add 200 μl P2 stock to 1.8 ml of cell suspension (10^6 cells) and incubate at room temperature 3 hrs. […] No growth was observed from either group after 2 weeks in culture.

B16 cells [3] = test: Intramuscular B16 tumor formation after i.m. injection of paclitaxel-treated cells; assay type: in vivo; settings: mice with tumor / mice in group; cells treated 3 hrs before i.m. injection
Protocol: as §1

[4] = test system: Caco-2 human colon adenocarcinoma cells in proliferation; test: Survival of Caco-2 cells in proliferation with 5-Fu and EPS, XTT; assay type: cell-based; settings: four days exposure
Protocol: (§2) The in vitro toxicity of the exopolysaccharide micelles was tested by incubating the micelles with a wide range of cell lines for 4-hour, 8-hour, 72-hour and 96-hour periods. The XTT™ or Alamar Blue™ assays were used to quantify the survival rates in the presence of the exopolysaccharide micelles. The capability of the exopolysaccharide to deliver an active molecule was first tested in vitro using 5-Fluorouracil (5-Fu) as a model active molecule. […] The 5-Fu/exopolysaccharide formulation was incubated with either B16F10 (murine skin melanoma), Caco-2 (human colon adenocarcinoma) or IEC-6 (rat epithelial small intestine) cells over 72-hour to 96-hour. Vital dyes (XTT or Alamar Blue) were added to supernatants for a period of 4 hours. Absorbance values were collected and plotted to evaluate the survival rate of the cells to the treatment.
(§3) Caco-2, IEC-6 and melanocytes B16 cells were cultured in DMEM supplemented with 10% FBS. […] The cells were grown in a CO2 incubator for 4 extra days. Cell survival was assessed with XTT™ according to manufacturers recommendation. […] The data are as follows:
(§4) Percentages of EPS are expressed in (w/v).

[5] = test system: Caco-2 human colon adenocarcinoma cells differentiated; test: Survival of differentiated Caco-2 cells with 5-Fu and EPS, XTT; assay type: cell-based; settings: four days exposure
Protocol: as §2, §3, §4

[6] = test system: B16F10 murine skin melanoma cells; test: Survival of B16F10 cells with 5-Fu and EPS, XTT; assay type: cell-based; settings: four days exposure
Protocol: as §2, §3, §4

B16 cells [7] = test: Mice grafted i.p. with B16 cells treated with 5 FU/EPS; assay type: in vivo, Balb/c mice
Protocol: Tumor cells were trypsinized and washed 3 times with PBS. Cells (1×10E6) were injected i.p. to Balb/c mice to induce a cancer in the peritoneal cavity. […] This highlighting again that EPS are not inert and may contribute to the therapeutic index.

[8] = test system: IEC-6 rat normal small intestine epithelial cells; test: Survival of IEC-6 cells with 5-Fu and EPS, Alamar Blue; assay type: cell-based; parameters: unit not given here; settings: three days exposure
Protocol: as §2, §3
[NB073]. Percentages of EPS are expressed in (w/v).

[9] = Fluorescein pharmacokinetic in rats, oral; assay type: in vivo, Wistar female rats; parameters: unit not given here; settings: fluorescein 1 mg/kg oral
Protocol: Fluorescein (FL) pharmacolinetic on unfasten Wistar female rats of 200 g and 8 weeks of age. Fluorescein concentration is 1 mg/kg. […] Fluorescein is added to the latter solutions and vortexed. Formulations are fed to the animals with a canula. 200 μl blood samples are collected through the jugular vein every 30 minutes for 2.5 hours. A final bleeding is made at 3.5 h. Plasma are collected immediately after centrifugation (10 min @ 1300 g). Plasma are frozen on dry ice until further analysis: 50 μl of plasma are diluted in 550 μl of saline 0.7% (w/v) and analyzed with a Varian Eclipse Spectrofluorometer (Excitation: 495 nm Emission: 515 nm). Concentrations were determined on a fluorescein standard curve (FL diluted in saline 0.7% and 50 μl of normal serum as in the sample analysis).

With Rhodamine 123 [R123 - Water] the “Rhodamine 123's concentration in plasma” value ([1]; time 0.0 h) was 2.2 ± 2.2 ng/mL, the “Rhodamine 123's concentration in plasma” value ([1]; time 0.5 h) was 20.4 ± 2.2 ng/mL and the “Rhodamine 123's concentration in plasma” value ([1]; time 1.0 h) was 20.9 ± 2.6 ng/mL. For the same molecule, the “Rhodamine 123's concentration in plasma” value ([1]; time 2.0 h) was 15.4 ± 2.0 ng/mL, the “Rhodamine 123's concentration in plasma” value ([1]; time 3.0 h) was 10.9 ± 1.4 ng/mL and the “Rhodamine 123's concentration in plasma” value ([1]; time 4.0 h) was 11.2 ± 1.8 ng/mL.
With `CC(=O)O[C@H]1C(=O)[C@@]2(C)[C@H]([C@H](OC(=O)c3ccccc3)[C@]3(O)C[C@H](OC(=O)[C@H](O)[C@@H](NC(=O)c4ccccc4)c4ccccc4)C(C)=C1C3(C)C)[C@]1(OC(C)=O)CO[C@@H]1C[C@@H]2O` [P1, Paclitaxel] the “Growth in tissue culture” value (B16 cells [2]) was “No growth; also recorded: negative” and the Intramuscular tumor formation (B16 cells [3]) was 12/15.
In the case of `O=c1[nH]cc(F)c(=O)[nH]1` [5-Fu alone, 5-Fluorouracil], the “Survival of Caco-2 cells in proliferation” value (“Survival … in proliferation” for short) ([4]; 5-Fu 1 μg/ml) is reported as 74.1 ± 1.9, the “Survival … in proliferation” value ([4]; 5-Fu 10 μg/ml) is reported as 78.6 ± 2.4 and the “Survival … in proliferation” value ([4]; 5-Fu 50 μg/ml) is reported as 80.3 ± 1.8. For the same molecule, the “Survival … in proliferation” value ([4]; 5-Fu 100 μg/ml) was 52.6 ± 4.8, the “Survival of Caco-2 cells differentiated” value ([5]; 5-Fu 1 μg/ml) was 105.7 ± 4.2 and the “Survival of Caco-2 cells differentiated” value ([5]; 5-Fu 10 μg/ml) was 85.6 ± 8.8. The “Survival of Caco-2 cells differentiated” value ([5]; 5-Fu 50 μg/ml) was 99.6 ± 6.8, the “Survival of Caco-2 cells differentiated” value ([5]; 5-Fu 100 μg/ml) was 78.1 ± 0.7 and the “Survival of B16F10 cells” value ([6]; 5-Fu 1 μg/ml) was 62.6 ± 6.6. The “Survival of B16F10 cells” value ([6]; 5-Fu 10 μg/ml) was 65.4 ± 10.4, the “Survival of B16F10 cells” value ([6]; 5-Fu 50 μg/ml) was 54.9 ± 8.9 and the “Survival of B16F10 cells” value ([6]; 5-Fu 100 μg/ml) was 38.8 ± 8.5. It also gave a Tumor-free mice (B16 cells [7]; day 0) of 100%, a Tumor-free mice (B16 cells [7]; day 15, 5 FU 100 mg/kg, EPS 0.1% w/v, treatment after 4 days) of 62.5% and a Tumor-free mice (B16 cells [7]; day 29, 5 FU 100 mg/kg, EPS 0.1% w/v, treatment after 4 days) of 12.5%. For the same molecule, the Tumor-free mice (B16 cells [7]; day 44, 5 FU 100 mg/kg, EPS 0.1% w/v, treatment after 4 days) was 12.5%, the “Survival of IEC-6 cells” value ([8]; Table 5, 5-Fu 5 μg/ml) was 16.9 ± 6.4 and the “Survival of IEC-6 cells” value ([8]; Table 5, 5-Fu 50 μg/ml) was 28.0 ± 4.6. The “Survival of IEC-6 cells” value ([8]; Table 5, 5-Fu 250 μg/ml) was 35.4 ± 8.2, the “Survival of IEC-6 cells” value ([8]; Table 5, 5-Fu 500 μg/ml) was 33.4 ± 3.5 and the “Survival of IEC-6 cells” value ([8]; Table 6, 5-Fu 1 μg/ml) was 78.0 ± 3.0. For the same molecule, the “Survival of IEC-6 cells” value ([8]; Table 6, 5-Fu 10 μg/ml) was 75.4 ± 2.9, the “Survival of IEC-6 cells” value ([8]; Table 6, 5-Fu 50 μg/ml) was 81.8 ± 2.1 and the “Survival of IEC-6 cells” value ([8]; Table 6, 5-Fu 100 μg/ml) was 80.2 ± 0.9.
For `O=C1OC2(c3ccc(O)cc3Oc3cc(O)ccc32)c2ccccc21` [FL-Water, Fluorescein], the “Fluorescein concentration in plasma” value ([9]; time 0.0 h) was 37.10, the “Fluorescein concentration in plasma” value ([9]; time 0.5 h) was 218.30 and the “Fluorescein concentration in plasma” value ([9]; time 1.0 h) was 145.95. The “Fluorescein concentration in plasma” value ([9]; time 1.5 h) was 75.25, the “Fluorescein concentration in plasma” value ([9]; time 2.0 h) was 74.48 and the “Fluorescein concentration in plasma” value ([9]; time 2.5 h) was 71.74. For the same molecule, the “Fluorescein concentration in plasma” value ([9]; time 3.5 h) was 54.63.
